Experimental findings from patent USRE37781E1, “Substituted cyclic carbonyls and derivatives thereof useful as retroviral protease inhibitors” (DuPont Pharmaceuticals Company, priority 1991, dated 2002) are described below.

≈ marks a conversion by molar mass, not a printed value. Where two headings read alike, the source gives them in different places.

As usually defined, the Ki is the equilibrium dissociation constant of an inhibitor or competing ligand from its target. The term IC90 denotes the concentration at which the effect reaches the 90% level. For orientation: melting point means the temperature of the solid-liquid transition. By Solubility is commonly meant how much of the substance goes into solution per volume. One may read the bioavailability as dose-corrected exposure relative to a reference, in per cent.

The target in one data set is T1, HIV protease (Human immunodeficiency virus type 1 group M subtype B, UniProt P04585).
T1 construct: plasmid containing HIV protease under the control of an inducible T7 promoter; made in house; host or cells: E. coli (inclusion bodies, T7 promoter)
Description: biochemical. Also on record: species or system HIV-1. How it is done:
HIV Protease Inhibition Assay—Spectroscopic Method
Inclusion bodies were solubilized in 8M urea, 50 mM tris pH 8.0. Protease activity was recovered by dilution 20-fold into buffer containing 50 mM sodium acetate pH 5.5, 1 mM EDTA, 10% glycerol and 5% ethylene glycol. Enzyme was used at a final concentration of 1.0-10 ug/ml.
Stock solutions of 10 mM were prepared in DMSO.
All further dilutions were done in DMSO.

The subject of data set [1] is HIV(3B) or HIV(RF) in MT-2 cells. The class given is cell-based. Also on record: scale not given here. Conditions: Table E, whole cell infectivity assay. How it is done: HIV Low Multiplicity Assay
Materials: MT-2, a human T-cell line, was cultured in RPMI medium supplemented with 5% (v/v) heat inactivated fetal calf serum (FCS), L-glutamine and gentamycin (GIBCO). Human immunodeficiency virus strains HIV (3B) and HIV (RF) were propagated in H-9 cells in RPMI with 5% FCS. XTT, benzene-sulfonic acid, 3,3′-[1-[(phenylamino) carbonyl]-3,4-tetrazolium]bis (4-methoxy-6nitro)-, sodium salt, was obtained from Starks Associates, Inc.
Method: Test compounds were dissolved in dimethylsulfoxide to 5 mg/ml and serially diluted into RPMI medium to ten times the desired final concentration. MT-2 cells (5×10^4/0.1 mL) were added to each well of a 96 well culture plate and 0.02 mL of the appropriate test compound solution was added to the cells such that each compound concentration was present in two wells. The cells and compounds were allowed to sit for 30 minutes at room temperature. HIV(3B) or HIV(RF) (−5×10^5 plaque foaming units/mL) was diluted in medium and added to the cell and compound mixtures to give a multiplicity of infection of 0.01 plaque forming unit/cell. The mixtures were incubated for 7 days at 36° C., during which time the virus replicated and caused the death of unprotected cells. The percentage of cells protected from virus induced cell death was determined by the degree of metabolism of the tetrazolium dye, XTT. In living cells, XTT was metabolized to a colored formazan product which was quantitated spectrophotometrically at 450 nm. The amount of colored formazan was proportional to the number of cells protected from virus by the test compound. The concentration of compound protecting either 50% (IC50) or 90% (IC90) with respect to an uninfected cell culture was determined.

Another data set has as its system HIV-1 protease. Description: HIV-1 Protease Transgenic Mouse Model (cataract phenotype). The note with it: for Cataract Density (% of control): Tg 61 mouse; for Delay in Cataract (relative to control): Tg 72 mouse.
The target in data set [2] is single-chain tethered dimer of HIV protease (Human immunodeficiency virus 1, UniProt P04585). Description: biochemical. The class given is biochemical.
The next data set deals with HIV-1 (RF) in MT-2 cells. Description: microbe, parasite or virus in culture. The class given is cell-based. Conditions: Human immunodeficiency virus 1, MT2, HIV RNA assay, HIV-1 infected MT-2 cells; class symbols; read-out: IC90. In outline: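 Read-out: gag and pol viral RNA captured by 5′-biotinylated oligonucleotides on streptavidin-coated wells, detected with alkaline phosphatase-linked reporter oligonucleotides, calibrated against BH10 in vitro transcripts. Virus stocks (RF, MN, IIIB) come from H9 cultures; MT-2 host cells kept in RPMI 1640, 5% FCS.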

A short description of another data set: Solubility studies. The data set is classed as physicochemical. How it is done: For compounds of the present invention having reduceded water solubility it may be advantageous to prepare prodrugs to enhance the solubility and bioavailability of these compounds. […] Solubility studies were performed by mixing an excess of solid compound in water or aqueous medium for at least 4 hours. Solubility was assessed either visually, if a weighed amount clearly dissolved in a measured volume of solvent (method A), or by HPLC assay of filtrates of saturated solutions (method B).

Data set [3] in a line: Oral bioavailability studies in fasted beagle dogs. The note with it: for bioavailability: beagle, dog, plasma, po, excipient glycol, read-out: % Oral Bioavailability of 5U (Mean ± SE). The data set is classed as in vivo. How it is done: Improved water solubility can result in increasing the extent of oral bioavailability. Oral bioavailability studies were performed in fasted beagle dogs. Compounds were dosed orally using a solution vehicle or the solid drug powder filled into hard gelatin capsules. Periodic blood samples were taken from each dog and plasma was separated. Plasma drug concentrations were determined using extraction and HPLC analysis. Generally, after the administration of 5U or its prodrugs 29A-E, the plasma concentrations of 5U were determined, rather than unchanged prodrug concentrations. […] Oral bioavailability is expressed as the percentage of the oral dose absorbed. […] Therefore, in order to attain improved oral bioavailability, 5U was administered using a solution with polyethylene glycol 400 or propylene glycol as the vehicle. […] Improved oral bioavailability was attained when the water soluble prodrugs were administered in the solid form, with no added excipients or solvents. […] The advantage of the water soluble prodrugs is especially clear at high doses. […] Samples were then extracted again and assayed for 5U concentration. […] Thus, plasma levels of both intact prodrug and hydrolysis product can be attained using these water soluble prodrugs.

A short description of data set [4]: Hydrolysis of prodrugs to 5U in biological fluids in vitro. Conditions: exposed to plasma or intestinal enzymes in vitro, 37° C. The data set is classed as in vitro ADME. How it is done: Compounds 29A-29E are hydrolyzed to parent compound 5U in biological fluids in vitro. This was shown as follows. Plasma was collected from rats, dogs, or human volunteer, and was used within 24 hours. […] After various times of incubation at 37° C., the hydrolysis reaction was quenched with the addition of an organic solvent. The organic solvent was used for extraction of 5U, and concentrations of 5U in the plasma aliquots were determined using HPLC after extraction. Concentrations of 5U were thus measured vs. time of incubation of the prodrug in plasma at 37° C. Similar studies were performed using a homogenate of rat intestinal tissue (10% w/v) as the hydrolysis medium. Results for in vitro hydrolysis of prodrug 29B in dog plasma and rat intestinal homogenate (10% w/v) are given in Table B. Results for in vitro hydrolysis of prodrug 29C in rat, dog and human plasma are given in Table C. […] Other salt forms of these compounds, such as prodrugs 29A and 29D, will be similar to their free acid or free base forms.

Method for HIV-1 protease: The HIV protease inhibitory activity of the presently claimed compounds was measured in this animal system as a delay or prevention of the onset of cataract appearance in the test animals.
Plasmid Construction: The mammalian expression vector pMSG (Pharmacia) was modified by replacing the MMTV LTR promoter with the 412-bp Bgl II-BamHI mouse alpha A-cryatallin promoter fragment (Chepelinsky et al. Proc. Natl. Acad. Sci. USA, 1985, 82, 2334-2338). The SV40 early splice and polyadenylation signals were retained and this plasmid was renamed pCSV 19. A single chain, tethered dimeric form of the active HIV-1 protease gene (BAA; Cheng et al., Proc. Natl. Acad. Sci. USA, 1990, 87, 9660-9664 and Cheng et al., Gene, 1990, 87, 243-248) was modified for mammalian cell expression by replacing nucleotides 7 to 90 with [sequence]. The gene was cut with EcoRI and Hind III and after blunt-end repair cloned into the Sma I site of the pCSV 19, thus producing PCSV 19-BAA.
Construction of Transgenic Mice: 2.5 kb Hind III fragments from the pCSV 19-BAA and pCSV 19-BA*A* plasmids were isolated (modified from Sambrook at al., Molecular Cloning, A Laboratory Manual, 2nd Ed., 1989, Cold Spring Harbor Laboratory) and used for the construction of transgenic mice using the pronuclei injection method (Hogan et al., Manipulating the Mouse Embryo. A Laboratory Manual, 1986, Cold Spring Harbor Laboratory). Mice were screened for the HIV-1 protease transgene by either Southern blot or Polymerase Chain Reaction (PCR) methods. Mice of the FVB/N strain (Taketo et al., Proc. Natl. Acad Sci. USA, 1991, 88, 2065-2069) were used for the construction and breeding of these transgenic mice, and were originally obtained from Dr. Carl Hansen (NIH) and bred in our facility. Subsequently, the mice were purchased from Charles River Laboratory (Portage, Mich.).
Identification of Transgenic Mice: Southern blot analysis (Sambrook et al. vide supra) was performed on DNA purified from tail biopsies (Hogan et al. vide supra) using the 2.5 kb Hind III fragment from pCSV 19-BAA as the probe (^32P labeled). DNA for PCR was prepared from tail biopsies by overnight digestion with 0.5 mg of Proteinase K (Boehringer-Manheim GmbH) in 100 μl of water and 0.025% SDS. PCR primers specific for the mouse c-fos gene and the transgene's SV40 segment were used as an internal control in some samples. Each PCR reaction contained 1-2 μl of tail digest, 60 μg of each primer, 200 μM of Perkin Elmer Cetus dATP, dCTP, dGTP,TTP (buffered at pH 8.8) and up to 5 units of Perkin Elmer Cetus Ampli/Taq polymerase. The reactions were run on a Perkin Elmer DNA Thermal Cycler as follows: 1 min at 94° C., 3 min at 67° C. (2 sec extension/cycle) for 35 cycles. The PCR products were analyzed by gel electrophoresis (1% agarose,0.5 μg/ml of ethidium bromide), and tail samples with a 625 PCR fragment (SV40 specific) were considered positive for the transgene. Mice bearing the active HIV-1 protease transgene were also identified by their cataract phenotype.
Dosing Regimen: Compounds to be tested were pulverized by manual grinding with mortar and pestle. Just prior to dosing of mice, the compound was suspended in 0.25% methylcellulose/Tween 80 solution, homogenized in a manual Dounce homogenizer and sonicated for 10 min in a sonicating water bath. The volume of suspension was adjusted so that the amount of compound required for dosing one mouse was 0.1-0.2 mL. In order to maintain the required mg/kg dose, an average mouse weight for each group was determined twice a week and the amount of compound adjusted accordingly. Intraperitoneal (ip) and oral (po) dosing was performed using 25 G ⅝ in. injection and 20 G 1½ in. feeding needles, respectively. The dosing was performed twice a day (bid) and the doses were administered 6-8 h apart.

The molecule `CC(C)=CCN1C(=O)N(CC=C(C)C)C(Cc2ccccc2)C(O)C(O)C1Cc1ccccc1` (centres unmarked) [Example 1AC] showed a melting point of 160 to 163 °C. The Ki on HIV protease (Table 1a, read-out: Ki) was below 10 nM. Besides, in [1], the IC90 entry is “+ + +”.
`CCCN1C(=O)N(CCC)C(Cc2ccccc2)C(O)C(O)C1Cc1ccccc1` (centres unmarked) [Example 1AF] displayed a melting point of 180 to 182 °C. The IC90 entry in data set [1] is listed as “+ + +”.
`CC(C)CCN1C(=O)N(CCC(C)C)C(Cc2ccccc2)C(O)C(O)C1Cc1ccccc1` (centres unmarked) [Example 1AH] registered a melting point of 194 to 195 °C. Moreover, the Ki at HIV protease (Table 1a, read-out: Ki) is below 10 nM. In addition, the IC90 entry in [1] is recorded as “+ + +”.
In turn, `O=C1N(Cc2ccccc2)C(Cc2ccccc2)C(O)C(O)C(Cc2ccccc2)N1Cc1ccccc1` (centres unmarked) [Example 1AQ] returned a Ki at HIV protease (Ki) below 10 nM. In addition, the IC90 result in data set [1] was “+ + +”. Besides, the “Cataract Density (% of control)” value in the data set with HIV-1 protease (60 mg/kg ip preg days 11-18) is given as 46.6 % of control; with HIV-1 protease (85 mg/kg ip preg days 11-18, 17-18), 20.6 % of control.
Molecule `C=CCN1C(=O)N(CC=C)C(Cc2ccccc2)C(O)C(O)C1Cc1ccccc1` (centres unmarked) [Example 1C] showed a Ki on HIV protease (Ki, Table 1a) below 10 nM. For the same molecule, the IC90 entry in [1] is given as “+ + +”.
With `O=C1N(CC2CC2)[C@H](Cc2ccccc2)[C@H](O)[C@@H](O)[C@@H](Cc2ccccc2)N1CC1CC1` [Example 1X], the Ki on HIV protease (Table 1a, read-out: Ki) was below 10 nM. Besides, the IC90 result in data set [1] is “+ + +”. The “Cataract Density (% of control)” value was 39.8 % of control in the data set on HIV-1 protease (5 mg/kg ip preg days 11-18) and 28.8 % of control with HIV-1 protease (15 mg/kg ip preg days 11-18).
On to `CCCCN1C(=O)N(CCCC)C(Cc2ccccc2)C(O)C(O)C1Cc1ccccc1` (centres unmarked) [Example 1Z], for which, at HIV protease (Table 1a, read-out: Ki), the Ki was below 10 nM. Further, the IC90 result in [1] is “+ + +”.
In the case of `O=C1N(Cc2ccc(CO)cc2)C(Cc2ccccc2)C(O)C(O)C(Cc2ccccc2)N1Cc1ccc(CO)cc1` (centres unmarked) [Example 5U], the Ki in data set [2] is below 10 nM. Besides, the IC90 in the data set on HIV-1 (RF) in MT-2 cells is below 10 µg/mL. In “Solubility studies” (thermodynamic from solid, water, method B (HPLC assay of filtrates of saturated solutions), read-out: Solubility), the Solubility came out at 10 µg/mL (≈ 17.6 µM). For the same molecule, the oral bioavailability result in [3] (administered as the solid powder) was “low oral bioavailability”; in [3] (similar (high) dose in a non-aqueous vehicle), “relatively poor oral bioavailability”. For the same molecule, the bioavailability in data set [3] (dose 40 mg/kg 5U eq.) was found to be 5 ± 2%; in data set [3] (dose 10-15 mg/kg 5U eq.), 50 ± 20%. The “Delay in Cataract (relative to control)” value turned out to be 5 days in the data set on HIV-1 protease (100 mg/kg bid ip) and 45 days in the data set with HIV-1 protease (400 mg/kg bid ip days 15-42).
Take `O=C1N(Cc2ccc(COP(=O)(O)O)cc2)[C@H](Cc2ccccc2)[C@H](O)[C@@H](O)[C@@H](Cc2ccccc2)N1Cc1ccc(COP(=O)(O)O)cc1` [Example 29A]: the Solubility in “Solubility studies” came out at 2250 µg/mL (≈ 3100 µM).
As to `CN(C)CC(=O)OCc1ccc(CN2C(=O)N(Cc3ccc(COC(=O)CN(C)C)cc3)[C@H](Cc3ccccc3)[C@H](O)[C@@H](O)[C@H]2Cc2ccccc2)cc1` [Example 29C], the Solubility in “Solubility studies” (0.1M citric acid, method A (visually)) is above 20000 µg/mL. Moreover, the “conversion of prodrug to parent 5U” value in data set [4] is listed as “readily convert to parent 5U”.
As to `CN(C)CC(=O)OCc1ccc(CN2C(=O)N(Cc3ccc(CO)cc3)[C@H](Cc3ccccc3)[C@H](O)[C@@H](O)[C@H]2Cc2ccccc2)cc1.Cl` [Example 29D], in the data set “Solubility studies” (water, method A (visually)), the Solubility was above 200000 µg/mL.
With `CN(C)CC(=O)OCc1ccc(CN2C(=O)N(Cc3ccc(COC(=O)CN(C)C)cc3)[C@H](Cc3ccccc3)[C@H](O)[C@@H](O)[C@H]2Cc2ccccc2)cc1.Cl` [Example 29E], the “conversion of prodrug to parent 5U” value in data set [4] is on record as “readily convert to parent 5U”. Moreover, the “AUC of intact esters (total of mono and bis ester) relative to that of 5U” value in data set [3] (oral, plasma treated with NaOH) is “approximately 2 fold”.
